Measurements reported in EPA's ToxRefDB 2.

Columns and labels:
mouse [1] = conditions: Combined chronic toxicity/carcinogenicity, b6c3f1, Oral, Gavage/Intubation, dose end: 105 week, group: systemic
mouse [2] = conditions: Subchronic oral toxicity in rodents, b6c3f1, Gavage/Intubation, dose end: 14 week, group: systemic
rat [3] = conditions: Prenatal developmental toxicity study, fischer, Oral, Gavage/Intubation, dose end: 10 GD
rabbit = conditions: Prenatal developmental toxicity study, new zealand white, Oral, Gavage/Intubation, dose end: 19 GD
rat [4] = conditions: Prenatal developmental toxicity study, sprague dawley, Oral, Gavage/Intubation, dose end: 17 GD
rat [5] = conditions: Acute oral toxicity, wistar, Gavage/Intubation, dose end: 7 day, group: systemic, systemic / clinical chemistry / calcium / calcium + systemic / urinalysis / calcium / calcium
rat [6] = conditions: Prenatal developmental toxicity study, wistar, Oral, Gavage/Intubation, dose end: 10 GD
[7] = systemic / pathology microscopic / ovary / atrophy + systemic / pathology microscopic / ovary / cyst + systemic / pathology microscopic / …
[8] = systemic / pathology microscopic / ovary / cyst + systemic / pathology microscopic / harderian gland / adenoma
[9] = systemic / hematology / erythrocyte (rbc) count differential / erythrocyte (rbc) + systemic / hematology / hematocrit (hct) / hematocrit (…
[10] = systemic / hematology / hemoglobin (hgb) / hemoglobin (hgb)
[11] = group: developmental, developmental / developmental malformation / bone / [other] + developmental / developmental malformation / general / crown-rump length + …
[12] = group: maternal, reproductive / reproductive performance / resorptions / resorptions + reproductive / offspring survival early / dead fetuses / dead fetuses…
[13] = group: developmental, systemic / in life observation / body weight / fetal weight
[14] = group: maternal, reproductive / reproductive performance / aborted / aborted + systemic / in life observation / body weight / body weight + systemic / in …
[15] = group: developmental, developmental / developmental malformation / bone / [other] + developmental / developmental malformation / bone / kinked + developmental / …
[16] = group: developmental, developmental / developmental malformation / heart / [other] + developmental / developmental malformation / ureter / convoluted
[17] = group: maternal, reproductive / reproductive performance / postimplantation loss / postimplantation loss + reproductive / reproductive performance / …
[18] = group: maternal, systemic / organ weight / uterus / nos + reproductive / offspring survival early / live fetuses / live fetuses
[19] = group: developmental, developmental / developmental malformation / bone / [other] + developmental / developmental malformation / bone / incomplete ossification + …
[20] = group: maternal, reproductive / reproductive performance / resorptions / resorptions + reproductive / offspring survival early / dead fetuses / dead fetuses

Q: `C=CC#N` [Acrylonitrile] was tested. Which LOAEL (mouse [1]; [7]) did it give?
A: The LOAEL was 10 mg/kg/day.

Q: And the NOAEL (mouse [1]; [7])?
A: The NOAEL was 2.5 mg/kg/day.

Q: What about the LEL (mouse [1]; [8]) of the same compound?
A: The LEL was 2.5 mg/kg/day.

Q: And the NEL (mouse [1]; [8])?
A: Its NEL is < 2.5 mg/kg/day.

Q: And the LOAEL (mouse [2]; [9])?
A: The LOAEL was > 60 mg/kg/day.

Q: And the NOAEL (mouse [2]; [9])?
A: Its NOAEL is ≥ 60 mg/kg/day.

Q: What about the LEL (mouse [2]; [10]) of the same compound?
A: Its LEL is 5 mg/kg/day.

Q: And the NEL (mouse [2]; [10])?
A: Its NEL is < 5 mg/kg/day.

Q: Which results are given for `CC(=O)Oc1ccccc1C(=O)O` [Aspirin]?
A: LEL (rat [3]; [11]): 500 mg/kg/day; LOAEL (rat [3]; [11]): > 625 mg/kg/day; NEL (rat [3]; [11]): < 500 mg/kg/day; NOAEL (rat [3]; [11]): ≥ 625 mg/kg/day; NEL (rat [3]; group: maternal, reproductive / reproductive performance / resorptions / resorptions): 500 mg/kg/day; LEL (rat [3]; [12]): 625 mg/kg/day; LOAEL (rat [3]; [12]): > 625 mg/kg/day; NOAEL (rat [3]; [12]): ≥ 625 mg/kg/day; LEL (rabbit; [13]): 350 mg/kg/day; LOAEL (rabbit; [13]): > 350 mg/kg/day; NEL (rabbit; [13]): 250 mg/kg/day; NOAEL (rabbit; [13]): ≥ 350 mg/kg/day; LOAEL (rabbit; [14]): > 350 mg/kg/day; NEL (rabbit; [14]): 125 mg/kg/day; NOAEL (rabbit; [14]): ≥ 350 mg/kg/day; LEL (rabbit; group: maternal, systemic / in life observation / body weight / body weight gain + systemic / in life observation / clinical signs / defecation (diarrhea) + …): 250 mg/kg/day; LOAEL (rat [4]; [15]): > 1000 mg/kg/day; NOAEL (rat [4]; [15]): ≥ 1000 mg/kg/day; LEL (rat [4]; [16]): 50 mg/kg/day; NEL (rat [4]; [16]): < 50 mg/kg/day; LOAEL (rat [4]; [17]): > 1000 mg/kg/day; NOAEL (rat [4]; [17]): ≥ 1000 mg/kg/day; LEL (rat [4]; [18]): 50 mg/kg/day; NEL (rat [4]; [18]): < 50 mg/kg/day; LEL (rat [5]): 100 mg/kg/day; LOAEL (rat [5]): > 100 mg/kg/day; NEL (rat [5]): < 100 mg/kg/day; NOAEL (rat [5]): ≥ 100 mg/kg/day; LEL (rat [6]; [19]): 500 mg/kg/day; LOAEL (rat [6]; [19]): > 500 mg/kg/day; NEL (rat [6]; [19]): < 500 mg/kg/day; NOAEL (rat [6]; [19]): ≥ 500 mg/kg/day; LEL (rat [6]; [20]): 500 mg/kg/day; LOAEL (rat [6]; [20]): > 500 mg/kg/day; NEL (rat [6]; [20]): < 500 mg/kg/day; NOAEL (rat [6]; [20]): ≥ 500 mg/kg/day
